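Step 1: Grow cells in 96-well plates. Step 2: Expose to compound for 48 hours at 5 concentrations. Step 3: Interpolate endpoints linearly; if unreached, use highest concentration. At the GI50, growth is halved. The concentration for full growth arrest is given as TGI.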
How the values were obtained:
Assay in all cases: DTP human tumour cell line panel, 48 h
NCI-H460 lung = system: NCI-H460 lung
CAKI-1 renal = system: CAKI-1 renal
NCI-H226 lung = system: NCI-H226 lung
MDA-MB-231 breast = system: MDA-MB-231 breast
HCC-2998 colon = system: HCC-2998 colon
PC-3 prostate = system: PC-3 prostate
UACC-257 melanoma = system: UACC-257 melanoma
NCI/ADR-RES ovarian = system: NCI/ADR-RES ovarian
T-47D breast = system: T-47D breast
HT29 colon = system: HT29 colon
OVCAR-4 ovarian = system: OVCAR-4 ovarian
SK-MEL-28 melanoma = system: SK-MEL-28 melanoma
786-0 renal = system: 786-0 renal
MDA-MB-435 = system: MDA-MB-435
OVCAR-8 ovarian = system: OVCAR-8 ovarian
U251 CNS = system: U251 CNS
EKVX NSCLC = system: EKVX NSCLC
SK-MEL-5 melanoma = system: SK-MEL-5 melanoma
SK-OV-3 ovarian = system: SK-OV-3 ovarian
MALME-3M melanoma = system: MALME-3M melanoma
A498 renal = system: A498 renal
CCRF-CEM leukemia = system: CCRF-CEM leukemia
NCI-H522 lung = system: NCI-H522 lung
RPMI-8226 leukemia = system: RPMI-8226 leukemia
OVCAR-3 ovarian = system: OVCAR-3 ovarian
MCF7 breast = system: MCF7 breast
HS 578T breast = system: HS 578T breast
SF-539 CNS = system: SF-539 CNS
KM12 colon = system: KM12 colon
ACHN renal = system: ACHN renal
SNB-19 CNS = system: SNB-19 CNS
SN12C renal = system: SN12C renal
MOLT-4 leukemia = system: MOLT-4 leukemia
DU-145 prostate = system: DU-145 prostate
HOP-92 NSCLC = system: HOP-92 NSCLC
HL-60(TB) leukemia = system: HL-60(TB) leukemia
HCT-15 colon = system: HCT-15 colon
UACC-62 melanoma = system: UACC-62 melanoma
SF-268 CNS = system: SF-268 CNS
BT-549 breast = system: BT-549 breast
HOP-62 NSCLC = system: HOP-62 NSCLC
HCT-116 colon = system: HCT-116 colon
K-562 leukemia = system: K-562 leukemia
RXF 393 renal = system: RXF 393 renal
UO-31 renal = system: UO-31 renal
LOX IMVI melanoma = system: LOX IMVI melanoma
NCI-H23 lung = system: NCI-H23 lung
COLO 205 colon = system: COLO 205 colon
SNB-75 CNS = system: SNB-75 CNS
TK-10 renal = system: TK-10 renal
SK-MEL-2 melanoma = system: SK-MEL-2 melanoma
SW-620 colon = system: SW-620 colon
A549 NSCLC = system: A549 NSCLC
M14 melanoma = system: M14 melanoma
OVCAR-5 ovarian = system: OVCAR-5 ovarian
IGROV1 ovarian = system: IGROV1 ovarian
SF-295 CNS = system: SF-295 CNS

COc1ccc(C2C3=C(COC3=O)N(CCO)c3cc4c(cc32)CCC4)cc1 (centres undefined)
GI50 (NCI-H460 lung): 2.37 µM
TGI (NCI-H460 lung): 26.9 µM
GI50 (CAKI-1 renal): 3.1 µM
TGI (CAKI-1 renal): 27.7 µM
GI50 (NCI-H226 lung): 21.4 µM
TGI (NCI-H226 lung): > 50 µM
GI50 (MDA-MB-231 breast): 10.9 µM
TGI (MDA-MB-231 breast): > 50 µM
GI50 (HCC-2998 colon): 5.76 µM
TGI (HCC-2998 colon): 25.8 µM
GI50 (PC-3 prostate): 6.22 µM
TGI (PC-3 prostate): > 50 µM
GI50 (UACC-257 melanoma): 4.34 µM
TGI (UACC-257 melanoma): > 50 µM
GI50 (NCI/ADR-RES ovarian): 3.89 µM
TGI (NCI/ADR-RES ovarian): 25.8 µM
GI50 (T-47D breast): 3.87 µM
TGI (T-47D breast): > 50 µM
GI50 (HT29 colon): 1.7 µM
TGI (HT29 colon): 24.9 µM
GI50 (OVCAR-4 ovarian): 5.46 µM
TGI (OVCAR-4 ovarian): > 50 µM
GI50 (SK-MEL-28 melanoma): 5.31 µM
TGI (SK-MEL-28 melanoma): > 50 µM
GI50 (786-0 renal): 4.8 µM
TGI (786-0 renal): > 50 µM
GI50 (MDA-MB-435): 1.13 µM
TGI (MDA-MB-435): 5.09 µM
GI50 (OVCAR-8 ovarian): 14.2 µM
TGI (OVCAR-8 ovarian): > 50 µM
GI50 (U251 CNS): 3.16 µM
TGI (U251 CNS): > 50 µM
GI50 (EKVX NSCLC): 13.5 µM
TGI (EKVX NSCLC): > 50 µM
GI50 (SK-MEL-5 melanoma): 2.38 µM
TGI (SK-MEL-5 melanoma): > 50 µM
GI50 (SK-OV-3 ovarian): 8.78 µM
TGI (SK-OV-3 ovarian): > 50 µM
GI50 (MALME-3M melanoma): 3.06 µM
TGI (MALME-3M melanoma): > 50 µM
GI50 (A498 renal): 2.36 µM
TGI (A498 renal): > 50 µM
GI50 (CCRF-CEM leukemia): 3.98 µM
TGI (CCRF-CEM leukemia): > 50 µM
GI50 (NCI-H522 lung): 0.808 µM
TGI (NCI-H522 lung): 3.73 µM
GI50 (RPMI-8226 leukemia): 11.4 µM
TGI (RPMI-8226 leukemia): > 50 µM
GI50 (OVCAR-3 ovarian): 1.07 µM
TGI (OVCAR-3 ovarian): 2.97 µM
GI50 (MCF7 breast): 1.86 µM
TGI (MCF7 breast): > 50 µM
GI50 (HS 578T breast): 4.11 µM
TGI (HS 578T breast): 42 µM
GI50 (SF-539 CNS): 5.09 µM
TGI (SF-539 CNS): 28.5 µM
GI50 (KM12 colon): 2.31 µM
TGI (KM12 colon): > 50 µM
GI50 (ACHN renal): 24 µM
TGI (ACHN renal): > 50 µM
GI50 (SNB-19 CNS): 7.48 µM
TGI (SNB-19 CNS): > 50 µM
GI50 (SN12C renal): 19 µM
TGI (SN12C renal): > 50 µM
GI50 (MOLT-4 leukemia): 2.2 µM
TGI (MOLT-4 leukemia): > 50 µM
GI50 (DU-145 prostate): 5.04 µM
TGI (DU-145 prostate): 20.2 µM
GI50 (HOP-92 NSCLC): > 50 µM
TGI (HOP-92 NSCLC): > 50 µM
GI50 (HL-60(TB) leukemia): 1.18 µM
TGI (HL-60(TB) leukemia): 3.98 µM
GI50 (HCT-15 colon): 6.04 µM
TGI (HCT-15 colon): > 50 µM
GI50 (UACC-62 melanoma): 2.65 µM
TGI (UACC-62 melanoma): > 50 µM
GI50 (SF-268 CNS): 7.05 µM
TGI (SF-268 CNS): > 50 µM
GI50 (BT-549 breast): 2.38 µM
TGI (BT-549 breast): 25.2 µM
GI50 (HOP-62 NSCLC): 9.02 µM
TGI (HOP-62 NSCLC): > 50 µM
GI50 (HCT-116 colon): 2.12 µM
TGI (HCT-116 colon): > 50 µM
GI50 (K-562 leukemia): 1.69 µM
TGI (K-562 leukemia): > 50 µM
GI50 (RXF 393 renal): 4.24 µM
TGI (RXF 393 renal): 27.1 µM
GI50 (UO-31 renal): 5.86 µM
TGI (UO-31 renal): > 50 µM
GI50 (LOX IMVI melanoma): 3.1 µM
TGI (LOX IMVI melanoma): > 50 µM
GI50 (NCI-H23 lung): 7.05 µM
TGI (NCI-H23 lung): > 50 µM
GI50 (COLO 205 colon): 6.2 µM
TGI (COLO 205 colon): > 50 µM
GI50 (SNB-75 CNS): 1.46 µM
TGI (SNB-75 CNS): 13.7 µM
GI50 (TK-10 renal): 3.36 µM
TGI (TK-10 renal): 39.9 µM
GI50 (SK-MEL-2 melanoma): 1.45 µM
TGI (SK-MEL-2 melanoma): 4.74 µM
GI50 (SW-620 colon): 2.17 µM
TGI (SW-620 colon): > 50 µM
GI50 (A549 NSCLC): 3.84 µM
TGI (A549 NSCLC): > 50 µM
GI50 (M14 melanoma): 2.32 µM
TGI (M14 melanoma): 21.1 µM
GI50 (OVCAR-5 ovarian): > 50 µM
TGI (OVCAR-5 ovarian): > 50 µM
GI50 (IGROV1 ovarian): 2.15 µM
TGI (IGROV1 ovarian): 18.4 µM
GI50 (SF-295 CNS): 1.49 µM
TGI (SF-295 CNS): 6.7 µM

— PubChem BioAssay (NCI)
